Data: ChEMBL document CHEMBL3865816, “Design, synthesis and biological evaluation of novel azaspiro analogs of linezolid as antibacterial and antitubercular agents” (Eur J Med Chem, 2016)
Values after ≈ are worked out from the molar mass of the structure shown.

How the values were obtained:
Assay type in all cases: functional
Pseudomonas aeruginosa [1] = experiment: Antibacterial activity against Pseudomonas aeruginosa NCIM 2036 at 3 ug/ml measured after 8 hrs by spectrophotometric method; conditions: NCIM 2036, 8 h
Bacillus subtilis [2] = experiment: Antibacterial activity against Bacillus subtilis NCIM 2010 at 3 ug/ml measured after 12 hrs by spectrophotometric method; conditions: NCIM 2010, 12 h
Staphylococcus aureus [3] = experiment: Antibacterial activity against Staphylococcus aureus NCIM 2079 at 3 ug/ml measured after 12 hrs by spectrophotometric method; conditions: NCIM 2079, 12 h
[4] = tested on: Mycobacterium tuberculosis; experiment: Antitubercular activity against dormant stage Mycobacterium tuberculosis H37Ra at 10 ug/ml measured after 12 days by XTT assay; conditions: 288 h
Bacillus subtilis [5] = experiment: Antibacterial activity against Bacillus subtilis NCIM 2010 at 10 ug/ml measured after 12 hrs by spectrophotometric method; conditions: NCIM 2010, 12 h
[6] = tested on: Mycobacterium tuberculosis; experiment: Antitubercular activity against dormant stage Mycobacterium tuberculosis H37Ra measured after 12 days by XTT assay; conditions: 288 h
Escherichia coli [7] = experiment: Antibacterial activity against Escherichia coli NCIM 2688 measured after 8 hrs by spectrophotometric method; conditions: NCIM 2688, 8 h
Staphylococcus aureus [8] = experiment: Antibacterial activity against Staphylococcus aureus NCIM 2079 measured after 12 hrs by spectrophotometric method; conditions: NCIM 2079, 12 h
Pseudomonas aeruginosa [9] = experiment: Antibacterial activity against Pseudomonas aeruginosa NCIM 2036 measured after 8 hrs by spectrophotometric method; conditions: NCIM 2036, 8 h
Staphylococcus aureus [10] = experiment: Antibacterial activity against Staphylococcus aureus NCIM 2079 at 30 ug/ml measured after 12 hrs by spectrophotometric method; conditions: NCIM 2079, 12 h
[11] = tested on: Mycobacterium tuberculosis; experiment: Antitubercular activity against dormant stage Mycobacterium tuberculosis H37Ra at 3 ug/ml measured after 12 days by XTT assay; conditions: 288 h
Escherichia coli [12] = experiment: Antibacterial activity against Escherichia coli NCIM 2688 at 3 ug/ml measured after 8 hrs by spectrophotometric method; conditions: NCIM 2688, 8 h
Bacillus subtilis [13] = experiment: Antibacterial activity against Bacillus subtilis NCIM 2010 measured after 12 hrs by spectrophotometric method; conditions: NCIM 2010, 12 h
Escherichia coli [14] = experiment: Antibacterial activity against Escherichia coli NCIM 2688 at 10 ug/ml measured after 8 hrs by spectrophotometric method; conditions: NCIM 2688, 8 h
Pseudomonas aeruginosa [15] = experiment: Antibacterial activity against Pseudomonas aeruginosa NCIM 2036 at 10 ug/ml measured after 8 hrs by spectrophotometric method; conditions: NCIM 2036, 8 h
Escherichia coli [16] = experiment: Antibacterial activity against Escherichia coli NCIM 2688 at 30 ug/ml measured after 8 hrs by spectrophotometric method; conditions: NCIM 2688, 8 h
Bacillus subtilis [17] = experiment: Antibacterial activity against Bacillus subtilis NCIM 2010 at 30 ug/ml measured after 12 hrs by spectrophotometric method; conditions: NCIM 2010, 12 h
[18] = tested on: Mycobacterium tuberculosis; experiment: Antitubercular activity against dormant stage Mycobacterium tuberculosis H37Ra at 30 ug/ml measured after 12 days by XTT assay; conditions: 288 h
Staphylococcus aureus [19] = experiment: Antibacterial activity against Staphylococcus aureus NCIM 2079 at 10 ug/ml measured after 12 hrs by spectrophotometric method; conditions: NCIM 2079, 12 h
Pseudomonas aeruginosa [20] = experiment: Antibacterial activity against Pseudomonas aeruginosa NCIM 2036 at 30 ug/ml measured after 8 hrs by spectrophotometric method; conditions: NCIM 2036, 8 h

SMILES	inhibition at 3 µg/mL (Pseudomonas aeruginosa [1]) [%]	inhibition at 3 µg/mL (Bacillus subtilis [2]) [%]	inhibition at 3 µg/mL (Staphylococcus aureus [3]) [%]	inhibition at 10 µg/mL [4] [%]	inhibition at 10 µg/mL (Bacillus subtilis [5]) [%]	IC50 [6] [µg/mL]	MIC [6] [µg/mL]	IC50 (Escherichia coli [7]) [µg/mL]	MIC (Escherichia coli [7]) [µg/mL]	IC50 (Staphylococcus aureus [8]) [µg/mL]	MIC (Staphylococcus aureus [8]) [µg/mL]	IC50 (Pseudomonas aeruginosa [9]) [µg/mL]	MIC (Pseudomonas aeruginosa [9]) [µg/mL]	inhibition at 30 µg/mL (Staphylococcus aureus [10]) [%]	inhibition at 3 µg/mL [11] [%]	inhibition at 3 µg/mL (Escherichia coli [12]) [%]	IC50 (Bacillus subtilis [13]) [µg/mL]	MIC (Bacillus subtilis [13]) [µg/mL]	inhibition at 10 µg/mL (Escherichia coli [14]) [%]	inhibition at 10 µg/mL (Pseudomonas aeruginosa [15]) [%]	also measured
O=C(NC[C@H]1CN(c2ccc(N3CC4(COC4)C3)c(F)c2)C(=O)O1)c1ccc(C(F)(F)F)cc1	74.9	65.4	78.4	-4.6	78.8	> 100	> 100	> 100	> 100	0.67 (≈ 1.4 µM)	22.3 (≈ 46.5 µM)	1.19 (≈ 2.48 µM)	18.1 (≈ 37.8 µM)	92.2	-10.1	33.8	> 100	> 100	59.7	84.9	inhibition at 30 µg/mL (Escherichia coli [16]): 74.1%; inhibition at 30 µg/mL (Bacillus subtilis [17]): 95.8%; inhibition at 30 µg/mL [18]: -20.7%; inhibition at 10 µg/mL (Staphylococcus aureus [19]): 84.4%; inhibition at 30 µg/mL (Pseudomonas aeruginosa [20]): 98.3%
O=C1O[C@@H](CNC(=O)C23CC4CC(CC(C4)C2)C3)CN1c1ccc(N2CC3(COC3)C2)c(F)c1	49.6	51.3	54.9	4.41	62	> 100	> 100	> 100	> 100	> 100	> 100	> 100	> 100	71.1	9.46	36.8	> 100	> 100	43.3	39.2	inhibition at 30 µg/mL (Escherichia coli [16]): 60.1%; inhibition at 30 µg/mL (Bacillus subtilis [17]): 69.8%; inhibition at 30 µg/mL [18]: 22.1%; inhibition at 10 µg/mL (Staphylococcus aureus [19]): 55.5%; inhibition at 30 µg/mL (Pseudomonas aeruginosa [20]): 40.7%
O=C1O[C@@H](CNS(=O)(=O)c2cc(Cl)cc(Cl)c2)CN1c1ccc(N2CC3(COC3)C2)c(F)c1	42.2	51	55.1	-5.84	56.1	> 100	> 100	> 100	> 100	> 100	> 100	> 100	> 100	74.2	8.02	36.8	> 100	> 100	23.5	67.2	inhibition at 30 µg/mL (Escherichia coli [16]): 25.4%; inhibition at 30 µg/mL (Bacillus subtilis [17]): 66.6%; inhibition at 30 µg/mL [18]: 23.2%; inhibition at 10 µg/mL (Staphylococcus aureus [19]): 50.6%; inhibition at 30 µg/mL (Pseudomonas aeruginosa [20]): 86.6%
CC1(C)[C@@]2(C)CC[C@]1(C(=O)NC[C@H]1CN(c3ccc(N4CC5(COC5)C4)c(F)c3)C(=O)O1)OC2=O	50.6	40.5	50.6	-38.5	53.8	> 100	> 100	> 100	> 100	> 100	> 100	> 100	> 100	70.2	9.81	20	> 100	> 100	28.8	55	inhibition at 30 µg/mL (Escherichia coli [16]): 39.5%; inhibition at 30 µg/mL (Bacillus subtilis [17]): 69.8%; inhibition at 30 µg/mL [18]: 15.6%; inhibition at 10 µg/mL (Staphylococcus aureus [19]): 51.1%; inhibition at 30 µg/mL (Pseudomonas aeruginosa [20]): 56.4%
O=C1O[C@@H](CNS(=O)(=O)c2ccc(Cl)s2)CN1c1ccc(N2CC3(COC3)C2)c(F)c1	86.6	90	94.3	-6.64	97.2	> 100	> 100	0.89 (≈ 1.82 µM)	15.4 (≈ 31.6 µM)	0.46 (≈ 0.943 µM)	1.31 (≈ 2.68 µM)	1.13 (≈ 2.32 µM)	3.52 (≈ 7.21 µM)	96.9	-14.5	80.3	0.64 (≈ 1.31 µM)	2.2 (≈ 4.51 µM)	87.4	97.1	inhibition at 30 µg/mL (Escherichia coli [16]): 97.8%; inhibition at 30 µg/mL (Bacillus subtilis [17]): 99.2%; inhibition at 30 µg/mL [18]: 74.6%; inhibition at 10 µg/mL (Staphylococcus aureus [19]): 96.5%; inhibition at 30 µg/mL (Pseudomonas aeruginosa [20]): 99%
